Reference: patent publication US10570122B2, “Compounds with anti-tumoral activity” (AB Science, priority 2015, dated 2020)

What was measured:
HL60 = test: CellTiter-Blue cell-based survival/proliferation assay, HL60; conditions: Homo sapiens, HL-60, Leukemia cell line HL60, 48 h, read-out: Anti-tumoral activity (measured IC50) HL60
How it was run: (§1)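 Compounds, diluted tenfold serially over 0–10 μM, are applied to 1·10^4 seeded cells per well for 48 h at 37 °C. Resorufin formed during a further 4 h with CellTiter-Blue is detected by fluorescence emission at 590 nm.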

HUT78 = test: CellTiter-Blue cell-based survival/proliferation assay, HUT78; conditions: Homo sapiens, Lymphoma cell line HUT78, 48 h, read-out: Anti-tumoral activity (measured IC50) HUT78
How it was run: as §1

KARPAS299 = test: CellTiter-Blue cell-based survival/proliferation assay, KARPAS299; conditions: Homo sapiens, KARPAS-299, Lymphoma cell line KARPAS299, 48 h, read-out: Anti-tumoral activity (measured IC50) KARPAS299
How it was run: as §1

REC1 = test: CellTiter-Blue cell-based survival/proliferation assay, REC1; conditions: Homo sapiens, Lymphoma cell line REC1, 48 h, read-out: Anti-tumoral activity (measured IC50) REC1
How it was run: as §1

OPM2 = test: CellTiter-Blue cell-based survival/proliferation assay, OPM2; conditions: Homo sapiens, OPM-2, Myeloma cell line OPM2, 48 h, read-out: Anti-tumoral activity (measured IC50) OPM2
How it was run: as §1

A498 = test: CellTiter-Blue cell-based survival/proliferation assay, A498; conditions: Homo sapiens; A498 kidney tumor cell line, 48 h
How it was run: as §1

A549 = test: CellTiter-Blue cell-based survival/proliferation assay, A549; conditions: Homo sapiens; A549 lung tumor cell line, 48 h
How it was run: as §1

ACHN = test: CellTiter-Blue cell-based survival/proliferation assay, ACHN; conditions: Homo sapiens; ACHN kidney tumor cell line, 48 h
How it was run: as §1

AGS = test: CellTiter-Blue cell-based survival/proliferation assay, AGS; conditions: Homo sapiens; AGS stomach tumor cell line, 48 h
How it was run: as §1

BT20 = test: CellTiter-Blue cell-based survival/proliferation assay, BT20; conditions: Homo sapiens, BT-20; BT20 breast tumor cell line, 48 h
How it was run: as §1

BXPC3 = test: CellTiter-Blue cell-based survival/proliferation assay, BXPC3; conditions: Homo sapiens, BXPC-3; BXPC3 pancreas tumor cell line, 48 h
How it was run: as §1

CALU6 = test: CellTiter-Blue cell-based survival/proliferation assay, CALU6; conditions: Homo sapiens, Calu-6; CALU6 lung tumor cell line, 48 h
How it was run: as §1

CLS354 = test: CellTiter-Blue cell-based survival/proliferation assay, CLS354; conditions: Homo sapiens, CLS-354; CLS354_4 head & neck tumor cell line, 48 h
How it was run: as §1

DLD1 = test: CellTiter-Blue cell-based survival/proliferation assay, DLD1; conditions: Homo sapiens, DLD-1; DLD_1 colorectal tumor cell line, 48 h
How it was run: as §1

DU145 = test: CellTiter-Blue cell-based survival/proliferation assay, DU145; conditions: Homo sapiens, DU-145; DU145 prostate tumor cell line, 48 h
How it was run: as §1

H1299 = test: CellTiter-Blue cell-based survival/proliferation assay, H1299; conditions: Homo sapiens, NCI-H1299; H1299 lung tumor cell line, 48 h
How it was run: as §1

HCT116 = test: CellTiter-Blue cell-based survival/proliferation assay, HCT116; conditions: Homo sapiens, HCT-116; HCT116 colorectal tumor cell line, 48 h
How it was run: as §1

HEP2 = test: CellTiter-Blue cell-based survival/proliferation assay, HEP2; conditions: Homo sapiens, HEp-2; HEP2 head & neck tumor cell line, 48 h
How it was run: as §1

HEPG2 = test: CellTiter-Blue cell-based survival/proliferation assay, HEPG2; conditions: Homo sapiens; HEPG2 liver tumor cell line, 48 h
How it was run: as §1

HGC27 = test: CellTiter-Blue cell-based survival/proliferation assay, HGC27; conditions: Homo sapiens, HGC-27; HGC27 stomach tumor cell line, 48 h
How it was run: as §1

MDAMB231 = test: CellTiter-Blue cell-based survival/proliferation assay, MDAMB231; conditions: Homo sapiens, MDA-MB-231; MDAMB231 breast tumor cell line, 48 h
How it was run: as §1

MESSA = test: CellTiter-Blue cell-based survival/proliferation assay, MESSA; conditions: Homo sapiens, MES-SA; MESSA ovary tumor cell line, 48 h
How it was run: as §1

PANC1 = test: CellTiter-Blue cell-based survival/proliferation assay, PANC1; conditions: Homo sapiens, PANC-1; PANC_1 pancreas tumor cell line, 48 h
How it was run: as §1

PC3 = test: CellTiter-Blue cell-based survival/proliferation assay, PC3; conditions: Homo sapiens, PC-3; PC3 prostate tumor cell line, 48 h
How it was run: as §1

PLCPRF5 = test: CellTiter-Blue cell-based survival/proliferation assay, PLCPRF5; conditions: Homo sapiens, PLC-PRF-5; PLC_PRF5 liver tumor cell line, 48 h
How it was run: as §1

SW579 = test: CellTiter-Blue cell-based survival/proliferation assay, SW579; conditions: Homo sapiens; SW579 head & neck tumor cell line, 48 h
How it was run: as §1

TOV112D = test: CellTiter-Blue cell-based survival/proliferation assay, TOV112D; conditions: Homo sapiens; TOV112D ovary tumor cell line, 48 h
How it was run: as §1

[1] = test system: panel of about 34 human tumor cell lines; test: Cell-based proliferation screening on panel of tumor cell lines; conditions: solid tumor cell line, cell line unknown, 48 h, read-out: IC50, solid tumor cell line of column 6 (last section of Table 3)
How it was run: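 CellTiter-Blue survival assay with 1·10^4 cells/well, each line treated 48 h at 37° C with 1/10 serial dilutions from 0 to 10 μM. Resorufin formed during a 4 h reagent incubation is read by fluorescence at 590 nm. A cell-free blank serves as background.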

For `CCOCc1ccc(C)c(Nc2ncc(-c3ccc(-n4ccccc4=O)cc3)o2)c1` [Example 049, 1-{4-[2-(5-Ethoxymethyl-(2-methyl-phenylamino))-oxazol-5-yl]-phenyl}-1H-pyridin-2-one], the IC50 (HL60) was over 1 µM, the IC50 (HUT78) was over 1 µM and the IC50 (KARPAS299) was over 1 µM. The IC50 (REC1) was over 1 µM, the IC50 (OPM2) was over 1 µM and the IC50 (A498) was over 1 µM. It also gave an IC50 (A549) of over 1 µM, an IC50 (ACHN) of over 1 µM and an IC50 (AGS) of over 1 µM. The IC50 (BT20) was over 1 µM, the IC50 (BXPC3) was over 1 µM and the IC50 (CALU6) was over 1 µM. It also gave an IC50 (CLS354) of over 1 µM, an IC50 (DLD1) of over 1 µM and an IC50 (DU145) of over 1 µM. The IC50 (H1299) was over 1 µM, the IC50 (HCT116) was over 1 µM and the IC50 (HEP2) was over 1 µM. For the same compound, the IC50 (HEPG2) was over 1 µM, the IC50 (HGC27) was over 1 µM and the IC50 (MDAMB231) was over 1 µM. It also gave an IC50 (MESSA) of over 1 µM, an IC50 (PANC1) of over 1 µM and an IC50 (PC3) of over 1 µM. It also gave an IC50 (PLCPRF5) of over 1 µM, an IC50 (SW579) of over 1 µM and an IC50 (TOV112D) of over 1 µM. For the same compound, the IC50 [1] was over 1 µM.
`CCOCc1ccc(C)c(Nc2ncc(-c3ccc(-n4ccc(C)n4)cc3)o2)c1` [Example 039, (5-Ethoxymethyl-2-methyl-phenyl)-{5-[4-(3-methyl-pyrazol-1-yl)-phenyl]-oxazol-2-yl}-amine] gave an IC50 (HL60) of 0.5 to 1 µM, an IC50 (HUT78) of 0.5 to 1 µM and an IC50 (KARPAS299) of 0.5 to 1 µM. For the same compound, the IC50 (REC1) was 0.5 to 1 µM, the IC50 (OPM2) was over 1 µM and the IC50 (A498) was over 1 µM. For the same compound, the IC50 (A549) was over 1 µM, the IC50 (ACHN) was over 1 µM and the IC50 (AGS) was over 1 µM. It also gave an IC50 (BT20) of over 1 µM, an IC50 (BXPC3) of over 1 µM and an IC50 (CALU6) of over 1 µM. It also gave an IC50 (CLS354) of over 1 µM, an IC50 (DLD1) of over 1 µM and an IC50 (DU145) of over 1 µM. The IC50 (H1299) was over 1 µM, the IC50 (HCT116) was over 1 µM and the IC50 (HEP2) was over 1 µM. For the same compound, the IC50 (HEPG2) was over 1 µM, the IC50 (HGC27) was over 1 µM and the IC50 (MDAMB231) was over 1 µM. For the same compound, the IC50 (MESSA) was over 1 µM, the IC50 (PANC1) was over 1 µM and the IC50 (PC3) was over 1 µM. The IC50 (PLCPRF5) was over 1 µM, the IC50 (SW579) was over 1 µM and the IC50 (TOV112D) was over 1 µM. It also gave an IC50 [1] of over 1 µM.
For `Cc1ccc(OCCN(C)C)cc1Nc1ncc(-c2ccc(-n3cccn3)cc2)o1` [Example 030, [5-(2-Dimethylamino-ethoxy)-2-methyl-phenyl]-[5-(4-pyrazol-1-yl-phenyl)-oxazol-2-yl]-amine], the IC50 (HL60) was over 1 µM, the IC50 (HUT78) was over 1 µM and the IC50 (KARPAS299) was over 1 µM. It also gave an IC50 (REC1) of over 1 µM, an IC50 (OPM2) of over 1 µM and an IC50 (A498) of over 1 µM. It also gave an IC50 (A549) of over 1 µM, an IC50 (ACHN) of over 1 µM and an IC50 (AGS) of over 1 µM. For the same compound, the IC50 (BT20) was over 1 µM, the IC50 (BXPC3) was over 1 µM and the IC50 (CALU6) was over 1 µM. It also gave an IC50 (CLS354) of over 1 µM, an IC50 (DLD1) of over 1 µM and an IC50 (DU145) of over 1 µM. For the same compound, the IC50 (H1299) was over 1 µM, the IC50 (HCT116) was over 1 µM and the IC50 (HEP2) was over 1 µM. It also gave an IC50 (HEPG2) of over 1 µM, an IC50 (HGC27) of over 1 µM and an IC50 (MDAMB231) of over 1 µM. It also gave an IC50 (MESSA) of over 1 µM, an IC50 (PANC1) of over 1 µM and an IC50 (PC3) of over 1 µM. For the same compound, the IC50 (PLCPRF5) was over 1 µM, the IC50 (SW579) was over 1 µM and the IC50 (TOV112D) was over 1 µM. The IC50 [1] was over 1 µM.
